Legend:
[1] = target: CYP3A4 (Homo sapiens, UniProt P08684); test: stability with recombinant CYP3A4; assay type: in vitro ADME; conditions: recombinant CYP3A4, intrinsic clearance, read-out: Recombinant CYP CLINT
Procedure: (§1) Depicted in table 2 is cytochrome P450 phenotyping and inhibition by ELP-004. The stability of ELP-004 was tested in the presence of recombinant enzymes CYP1A2, CYP2B6, CYP2C8, CYP2C9, CYP2C19, CYP2D6, and CYP3A4. ELP-004 (1 μM) was incubated with recombinant enzymes and NADPH. The amount of ELP-004 remaining at each timepoint was analyzed by LC-MS/MS. Incubations in control recombinant enzymes were also performed to assess non-enzymatic mediated stability. The intrinsic clearance of ELP-004 was determined. […] A decrease in the formation of the metabolite compared to vehicle control is used to calculate an IC50 value. Metabolite peak area ratio response as a percentage of vehicle control is plotted against the test compound concentration.

[2] = target: CYP2C9 (Homo sapiens, UniProt P11712); test: stability with recombinant CYP2C9; assay type: in vitro ADME
Procedure: as §1

[3] = target: T1, CYP2B6 (Homo sapiens, UniProt P20813); test: stability with recombinant CYP2B6; assay type: in vitro ADME; conditions: recombinant CYP2B6, intrinsic clearance, read-out: Recombinant CYP CLINT
T1 sequence (P20813 1-491): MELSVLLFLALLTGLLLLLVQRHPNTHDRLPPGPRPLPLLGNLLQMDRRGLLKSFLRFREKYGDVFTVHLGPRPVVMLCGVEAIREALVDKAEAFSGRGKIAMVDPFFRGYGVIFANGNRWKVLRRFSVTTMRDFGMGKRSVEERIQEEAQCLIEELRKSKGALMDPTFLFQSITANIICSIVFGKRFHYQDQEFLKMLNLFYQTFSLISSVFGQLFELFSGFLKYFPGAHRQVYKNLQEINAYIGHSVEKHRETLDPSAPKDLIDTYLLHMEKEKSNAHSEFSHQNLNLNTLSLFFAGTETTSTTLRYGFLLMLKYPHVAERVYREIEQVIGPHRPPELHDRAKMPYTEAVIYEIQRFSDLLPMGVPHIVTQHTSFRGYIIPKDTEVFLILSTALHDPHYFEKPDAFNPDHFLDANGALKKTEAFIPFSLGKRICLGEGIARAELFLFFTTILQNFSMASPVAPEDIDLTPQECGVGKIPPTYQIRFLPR
Procedure: as §1

[4] = target: T2, CYP1A2 (Homo sapiens, UniProt P05177); test: stability with recombinant CYP1A2; assay type: in vitro ADME; conditions: recombinant CYP1A2, intrinsic clearance, read-out: Recombinant CYP CLINT
T2 sequence (P05177 1-516): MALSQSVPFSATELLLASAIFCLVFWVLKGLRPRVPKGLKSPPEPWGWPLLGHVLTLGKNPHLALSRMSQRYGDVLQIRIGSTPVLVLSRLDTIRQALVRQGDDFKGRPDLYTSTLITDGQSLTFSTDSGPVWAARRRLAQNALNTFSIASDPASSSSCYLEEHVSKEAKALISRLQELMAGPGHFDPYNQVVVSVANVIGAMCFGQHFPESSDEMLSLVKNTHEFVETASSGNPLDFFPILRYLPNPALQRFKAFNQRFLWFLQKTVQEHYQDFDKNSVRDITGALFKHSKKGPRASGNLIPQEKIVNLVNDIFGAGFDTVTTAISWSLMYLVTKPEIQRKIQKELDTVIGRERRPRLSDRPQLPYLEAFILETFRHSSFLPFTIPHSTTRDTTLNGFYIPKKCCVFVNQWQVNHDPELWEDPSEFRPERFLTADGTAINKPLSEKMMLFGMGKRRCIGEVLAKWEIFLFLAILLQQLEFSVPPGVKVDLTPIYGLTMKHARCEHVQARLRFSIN
Procedure: as §1

[5] = target: T3, CYP2C8 (Homo sapiens, UniProt P10632); test: stability with recombinant CYP2C8; assay type: in vitro ADME; conditions: recombinant CYP2C8, intrinsic clearance, read-out: Recombinant CYP CLINT
T3 sequence (P10632 1-490): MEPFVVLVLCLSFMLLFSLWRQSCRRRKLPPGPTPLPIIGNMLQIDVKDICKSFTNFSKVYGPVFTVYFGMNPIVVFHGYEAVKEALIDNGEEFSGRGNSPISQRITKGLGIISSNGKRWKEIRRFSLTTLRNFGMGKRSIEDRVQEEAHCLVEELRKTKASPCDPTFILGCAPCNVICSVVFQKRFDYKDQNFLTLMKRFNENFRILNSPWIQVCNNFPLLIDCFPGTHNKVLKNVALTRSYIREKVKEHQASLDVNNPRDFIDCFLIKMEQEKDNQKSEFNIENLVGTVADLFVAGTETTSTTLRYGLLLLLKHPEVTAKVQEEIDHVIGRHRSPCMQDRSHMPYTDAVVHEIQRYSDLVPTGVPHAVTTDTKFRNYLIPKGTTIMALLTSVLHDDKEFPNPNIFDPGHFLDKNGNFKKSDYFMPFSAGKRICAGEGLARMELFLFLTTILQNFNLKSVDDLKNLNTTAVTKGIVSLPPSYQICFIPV
Procedure: as §1

[6] = tested on: CYP enzymes; test: induction of CYP enzymes; assay type: in vitro ADME
[7] = tested on: U266 cells; test: U266 cell viability (Axenin V method) and cell counts; assay type: cell-based, human
Procedure: The U266 cells were incubated in the presence of the noted concentrations of ELP-004, and the viability of the cells was determined at the indicated times using the Axenin V method.
Initial treatment with N-methyl dichloropropionaniline (N-MeDCPA, ELP-004) was examined. The N-MeDCPA was designed and synthesized and tested in laboratory experiments. A treatment scheme with plated cells was devised using N-MeDCPA as compared to a DMSO vehicle only, along with 100 μM and 200 μM dosages on U266 cell samples. U266 is a B lymphocyte isolated from the peripheral blood of a patient with myeloma and is commonly used in immune system disorder research and immunology research. The cells were allowed to incubate then counted under a 10× lens.
As may be seen in FIG. 1, the growth curve of cell samples as treated with the varying concentrations versus a DMSO vehicle can be observed. The number of cells per milliliter was calculated after examination and counting under the lens.
The effect of ELP-004 (i.e. N-MeDCPA) on […] (a myeloma cell line) proliferation is described above.

CYP2C9, sequence (P11712 whole entry): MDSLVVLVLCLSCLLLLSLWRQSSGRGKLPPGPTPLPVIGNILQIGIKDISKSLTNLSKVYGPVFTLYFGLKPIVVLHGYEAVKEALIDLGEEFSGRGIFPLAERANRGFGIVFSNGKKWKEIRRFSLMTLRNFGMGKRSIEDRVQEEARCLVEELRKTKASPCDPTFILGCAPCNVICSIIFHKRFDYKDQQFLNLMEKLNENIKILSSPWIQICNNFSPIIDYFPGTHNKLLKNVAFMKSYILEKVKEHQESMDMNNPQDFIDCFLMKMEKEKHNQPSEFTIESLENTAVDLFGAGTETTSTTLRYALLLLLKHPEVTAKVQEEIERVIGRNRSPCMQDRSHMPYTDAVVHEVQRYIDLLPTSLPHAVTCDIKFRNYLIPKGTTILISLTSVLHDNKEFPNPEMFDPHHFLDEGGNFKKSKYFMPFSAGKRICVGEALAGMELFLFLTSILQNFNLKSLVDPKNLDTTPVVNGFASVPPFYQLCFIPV
CYP3A4, sequence (P08684 whole entry): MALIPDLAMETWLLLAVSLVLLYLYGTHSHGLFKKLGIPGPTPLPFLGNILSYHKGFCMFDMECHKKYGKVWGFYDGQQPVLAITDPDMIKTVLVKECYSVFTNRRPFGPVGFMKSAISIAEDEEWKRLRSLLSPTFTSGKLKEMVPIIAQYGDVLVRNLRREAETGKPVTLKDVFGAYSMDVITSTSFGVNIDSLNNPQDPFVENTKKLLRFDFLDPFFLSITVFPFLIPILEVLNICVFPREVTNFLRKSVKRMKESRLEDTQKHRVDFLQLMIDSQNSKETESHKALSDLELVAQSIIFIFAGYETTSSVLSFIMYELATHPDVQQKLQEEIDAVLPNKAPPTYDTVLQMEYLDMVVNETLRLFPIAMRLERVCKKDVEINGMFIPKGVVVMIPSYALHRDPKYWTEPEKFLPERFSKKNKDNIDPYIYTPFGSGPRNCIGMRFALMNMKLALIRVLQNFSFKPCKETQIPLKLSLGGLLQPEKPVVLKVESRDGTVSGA

Question: `CCC(=O)N(C)c1ccc(Cl)c(Cl)c1` [ELP-004, N-(3,4-dichlorophenyl)-N-methylpropanamide] was tested. Which microsomal CLint at 1 μM [1] did it give?
Answer: 0.193 µL/min/mg

Question: And the microsomal CLint at 1 μM ([2]; human, recombinant CYP2C9, intrinsic clearance, read-out: Recombinant CYP CLINT)?
Answer: < 0.154 µL/min/mg

Question: And the “metabolism by recombinant enzyme” value ([2]; recombinant CYP2C9)?
Answer: not metabolized

Question: What about the “ELP-004 t1/2” value ([2]; recombinant CYP2C9, 1 μM, NADPH) of the same compound?
Answer: >3 h

Question: And the microsomal CLint at 1 μM [3]?
Answer: 0.815 µL/min/mg

Question: What about the microsomal CLint at 1 μM [4] of the same compound?
Answer: 2.85 µL/min/mg

Question: What about the microsomal CLint at 1 μM [5] of the same compound?
Answer: 0.219 µL/min/mg

Question: And the “effect on induction of CYP enzymes” value [6]?
Answer: no deleterious effect

Question: And the IC50 ([7]; Homo sapiens, U-266, U266 cells, viability by Axenin V method, calculated using two methods)?
Answer: 154 µM

Question: And the myeloma cell proliferation ([7]; U66 (U266) myeloma cell line)?
Answer: inhibits myeloma cell proliferation

From patent US20240277631A1, “SMALL MOLECULE DRUG (ELP-004) TO PREVENT BONE LESIONS CAUSED BY MULTIPLE MYELOMA” (West Virginia University Board of Governors on behalf of …, priority 2023, published 2024)
